Data published in patent US4145554A, “3-Nitropyrazole derivatives” (Eli Lilly and Company, priority 1977, dated 1979).
Converted amounts (≈) assume the structure as drawn. Where two headings read alike, the source gives them in different places.

Experiments:
[1] = tested on: Staphylococcus aureus sp. 1130; assay: in vitro tube dilution test (MIC); format: cell-based
Text: (§1) The other preferred compounds of our invention have also been thoroughly tested in the in vitro tube dilution test.
(§2) Other compounds of our invention have also been tested in the tube dilution test and shown to have in vitro activity against a number of microorganisms. The table below reports tests of a number of exemplary compounds against exemplary microorganisms. The compounds are identified by their numbers in the listing above. The data are reported as the MIC in micrograms per milliliter against the named exemplary microorganisms.

Salmonella dublin = assay: in vitro tube dilution test (MIC); format: cell-based; conditions: Salmonella enterica
Text: as §1, §2

Vibrio coli 3811 = assay: in vitro tube dilution test (MIC); format: cell-based; conditions: Campylobacter coli
Text: as §1, §2

Salmonella typhimurium = assay: Salmonellosis in chickens, single injection to day-old chicks; format: in vivo; conditions: for responders at 60 mg/kg: Salmonella enterica, TYPHIMURIUM, 168 h, single injection of 60 mg./kg., seven days, read-out: Survival (converted); for chicks protected of the 5-bird treated group: salmonella challenge
Description: A number of our 3-nitropyrazoles have been tested against an induced infection of Salmonella typhimurium in day-old chicks. The test was conducted by administering a single injection of 60 mg./kg. of the compounds to each of five chicks. The following day, the chicks were challenged by the subcutaneous injection of a dispersion of S. typhimurium organisms sufficient to kill most or all of the untreated control chicks.
Some of the compounds were tested more than once, in which instances the data are reported as the total survivors from the multiple treatment groups. Untreated, challenged control groups of chicks were tested together with each batch of groups of chicks to which test compounds were administered. Since the mortality of the untreated control chicks varied somewhat from one group of tests to another, results of the untreated control groups are reported below with each test.

Mycoplasma gallisepticum = assay: in vitro tube dilution test (MIC); format: cell-based; conditions: Mycoplasmoides gallisepticum
Text: (§3) Our compound, 1-(2-hydroxyethyl)-3-nitro-4-pyrazolecarboxamide, has been extensively tested in vitro to determine the range of microorganisms against which it is active. The table of data below reports the minimum inhibitory concentration (MIC) at which the compound is effective in controlling a variety of microorganisms in a standard tube dilution test system. The MIC is reported as micrograms of compound per milliliter.
as §2

Escherichia coli = assay: in vitro tube dilution test (MIC); format: cell-based
Text: as §3, §2

Pasteurella multocida = assay: in vitro tube dilution test (MIC); format: cell-based
Text: as §3, §1, §2

Streptococcus sp. 80 = assay: in vitro tube dilution test (MIC); format: cell-based
Text: as §2

[2] = Staphylococcus aureus sp. 1130, tube dilution, read-out: MIC
[3] = Salmonella dublin, tube dilution, read-out: MIC
[4] = Vibrio coli 3811, tube dilution, read-out: MIC
[5] = Mycoplasma gallisepticum, tube dilution, read-out: MIC
[6] = Streptococcus sp. 80, tube dilution, read-out: MIC

Compound	MIC [1, 2] [µg/mL]	MIC (Salmonella dublin; [3]) [µg/mL]	MIC (Vibrio coli 3811; [4]) [µg/mL]	responders at 60 mg/kg (Salmonella typhimurium) [%]	MIC (Mycoplasma gallisepticum; [5]) [µg/mL]	MIC (Escherichia coli; tube dilution, read-out: MIC) [µg/mL]	MIC (Pasteurella multocida; tube dilution, read-out: MIC) [µg/mL]	MIC (Streptococcus sp. 80; [6]) [µg/mL]	chicks protected of the 5-bird treated group (Salmonella typhimurium)	MIC ([1]; Staphylococcus aureus, SP.1130) [µg/mL]	MIC (Salmonella dublin) [µg/mL]	MIC (Vibrio coli 3811; 3811) [µg/mL]	MIC (Mycoplasma gallisepticum) [µg/mL]	MIC (Escherichia coli) [µg/mL]	MIC (Pasteurella multocida) [µg/mL]	MIC (Streptococcus sp. 80; Streptococcus, SP.80) [µg/mL]
CC(C)n1cc(C(N)=O)c([N+](=O)[O-])n1 [Compound 64, 1-isopropyl-3-nitro-4-pyrazolecarboxamide]	50 (≈ 252 µM)	12.5 (≈ 63.1 µM)	> 50	60	50 (≈ 252 µM)	25 (≈ 126 µM)	50 (≈ 252 µM)	> 50	–	–	–	–	–	–	–	–
NC(=O)c1cn(CCCl)nc1[N+](=O)[O-] [Compound 52, 1-(2-chloroethyl)-3-nitro-4-pyrazolecarboxamide]	> 1.56	3.12 (≈ 14.3 µM)	25 (≈ 114 µM)	80	> 50	3.12 (≈ 14.3 µM)	12.5 (≈ 57.2 µM)	50 (≈ 229 µM)	–	–	–	–	–	–	–	–
NC(=O)c1cn(Cc2ccccc2)nc1[N+](=O)[O-] [Compound 18, 1-benzyl-3-nitro-4-pyrazolecarboxamide]	6.25 (≈ 25.4 µM)	12.5 (≈ 50.8 µM)	50 (≈ 203 µM)	70	6.25 (≈ 25.4 µM)	12.5 (≈ 50.8 µM)	12.5 (≈ 50.8 µM)	50 (≈ 203 µM)	–	–	–	–	–	–	–	–
N#Cc1cn(CCO)nc1[N+](=O)[O-] [Compound 55, 1-(2-hydroxyethyl)-3-nitro-4-pyrazolecarbonitrile]	6.25 (≈ 34.3 µM)	6.25 (≈ 34.3 µM)	–	80	–	12.5 (≈ 68.6 µM)	–	50 (≈ 275 µM)	–	–	–	–	–	–	–	–
CC=CCn1cc(C(N)=O)c([N+](=O)[O-])n1 [Compound 75, 1-(2-butenyl)-3-nitro-4-pyrazolecarboxamide]	12.5 (≈ 59.5 µM)	25 (≈ 119 µM)	12.5 (≈ 59.5 µM)	60	> 50	50 (≈ 238 µM)	25 (≈ 119 µM)	> 50	–	–	–	–	–	–	–	–
Cn1cc(-c2nnc(N)s2)c([N+](=O)[O-])n1 [Compound 102, 2-amino-5-(1-methyl-3-nitro-4-pyrazolyl)-1,3,4-thiadiazole]	6.25 (≈ 27.6 µM)	12.5 (≈ 55.3 µM)	12.5 (≈ 55.3 µM)	–	12.5 (≈ 55.3 µM)	12.5 (≈ 55.3 µM)	–	50 (≈ 221 µM)	at least three chicks of the 5-bird treated group	–	–	–	–	–	–	–
NC(=O)c1cn(CCCO)nc1[N+](=O)[O-] [Compound 62, 1-(3-hydroxypropyl)-3-nitro-4-pyrazolecarboxamide]	50 (≈ 233 µM)	3.12 (≈ 14.6 µM)	12.5 (≈ 58.4 µM)	70	1.56 (≈ 7.28 µM)	6.25 (≈ 29.2 µM)	6.25 (≈ 29.2 µM)	50 (≈ 233 µM)	–	–	–	–	–	–	–	–
NC(=O)c1cn(C2C=CC(n3cc(C(N)=O)c([N+](=O)[O-])n3)C=C2)nc1[N+](=O)[O-] (centres unmarked) [Compound 59, 1,1'-(2,5-cyclohexadien-1,4-ylene)-bis(3-nitro-4-pyrazolecarboxamide)]	–	–	–	–	–	–	–	–	at least three chicks of the 5-bird treated group	1.56 (≈ 4.02 µM)	3.12 (≈ 8.04 µM)	12.5 (≈ 32.2 µM)	3.12 (≈ 8.04 µM)	3.12 (≈ 8.04 µM)	3.12 (≈ 8.04 µM)	> 50
CCCCNC(=O)c1cn(CCO)nc1[N+](=O)[O-] [Compound 85, N-butyl-1-(2-hydroxyethyl)-3-nitro-4-pyrazolecarboxamide]	> 50	> 50	50 (≈ 195 µM)	–	3.12 (≈ 12.2 µM)	> 50	> 50	> 50	at least three chicks of the 5-bird treated group	–	–	–	–	–	–	–
NC(=O)c1cn(CCCCl)nc1[N+](=O)[O-] [Compound 63, 1-(3-chloropropyl)-3-nitro-4-pyrazolecarboxamide]	50 (≈ 215 µM)	12.5 (≈ 53.7 µM)	25 (≈ 107 µM)	40	6.25 (≈ 26.9 µM)	50 (≈ 215 µM)	25 (≈ 107 µM)	> 50	–	–	–	–	–	–	–	–
CC(=O)Cn1cc(C(N)=O)c([N+](=O)[O-])n1 [Compound 9, 1-(2-oxopropyl)-3-nitro-4-pyrazolecarboxamide]	6.25 (≈ 29.5 µM)	6.25 (≈ 29.5 µM)	6.25 (≈ 29.5 µM)	100	> 50	12.5 (≈ 58.9 µM)	> 50	50 (≈ 236 µM)	–	–	–	–	–	–	–	–
CS(=O)(=O)CCn1cc(C(N)=O)c([N+](=O)[O-])n1 [Compound 66, 1-[2-(methylsulfonyl)ethyl]-3-nitro-4-pyrazolecarboxamide]	25 (≈ 95.3 µM)	> 50	> 50	40	50 (≈ 191 µM)	50 (≈ 191 µM)	12.5 (≈ 47.7 µM)	25 (≈ 95.3 µM)	–	–	–	–	–	–	–	–
CCCn1cc(C(N)=O)c([N+](=O)[O-])n1 [Compound 38, 3-nitro-1-propyl-4-pyrazolecarboxamide]	–	–	–	80	–	–	–	–	–	–	–	–	–	–	–	–
CCOC(Cn1cc(C(N)=O)c([N+](=O)[O-])n1)OCC [Compound 82, 1-(2,2-diethoxyethyl)-3-nitro-4-pyrazolecarboxamide]	50 (≈ 184 µM)	50 (≈ 184 µM)	50 (≈ 184 µM)	80	25 (≈ 91.8 µM)	50 (≈ 184 µM)	50 (≈ 184 µM)	50 (≈ 184 µM)	–	–	–	–	–	–	–	–
N#Cc1cn(CCCCl)nc1[N+](=O)[O-] [Compound 83, 1-(3-chloropropyl)-3-nitro-4-pyrazolecarbonitrile]	> 50	> 50	25 (≈ 116 µM)	80	50 (≈ 233 µM)	> 50	> 50	> 50	–	–	–	–	–	–	–	–
N#Cc1cn(CCCl)nc1[N+](=O)[O-] [Compound 33, 1-(2-chloroethyl)-3-nitro-4-pyrazolecarbonitrile]	100 (≈ 499 µM)	100 (≈ 499 µM)	12.5 (≈ 62.3 µM)	80	> 50	100 (≈ 499 µM)	–	100 (≈ 499 µM)	–	–	–	–	–	–	–	–
NC(=O)c1cn(CCOC(=O)c2cccc(Cl)c2)nc1[N+](=O)[O-] [Compound 99, 2-(4-carbamoyl-3-nitropyrazol-1-yl)ethyl m-chlorobenzoate]	–	–	–	80	–	–	–	–	–	–	–	–	–	–	–	–
CCOCCn1cc(C#N)c([N+](=O)[O-])n1 [Compound 84, 1-(2-ethoxyethyl)-3-nitro-4-pyrazolecarbonitrile]	50 (≈ 238 µM)	50 (≈ 238 µM)	25 (≈ 119 µM)	80	50 (≈ 238 µM)	50 (≈ 238 µM)	25 (≈ 119 µM)	50 (≈ 238 µM)	–	–	–	–	–	–	–	–
NC(=O)c1cn(CCBr)nc1[N+](=O)[O-] [Compound 96, 1-(2-bromoethyl)-3-nitropyrazole-4-carboxamide]	< 1.56	3.12 (≈ 11.9 µM)	25 (≈ 95 µM)	100	25 (≈ 95 µM)	6.25 (≈ 23.8 µM)	12.5 (≈ 47.5 µM)	> 50	–	–	–	–	–	–	–	–
CCOC(=O)OCCn1cc(C(N)=O)c([N+](=O)[O-])n1 [Compound 78, [2-(4-carbamoyl-3-nitropyrazol-1-yl)ethyl] ethyl carbonate]	–	–	–	40	–	–	–	–	–	–	–	–	–	–	–	–
